Measured values taken from patent publication US20090274638A1, “COSMETIC USE OF A C-GLYCOSIDE DERIVATIVE IN COMBINATION WITH ASCORBIC ACID” (L'OREAL, priority 2006, published 2009).

System: normal human dermal fibroblasts (NHDF)
Assay: type I procollagen ELISA assay on culture medium of fibroblasts after 72 hours incubation
Assay type: cell-based
Conditions: for Procollagen 1 / %/blank: NHDF, 72 hours; for Procollagen 1: DMEM containing 10% FCS, ELISA on culture medium; for %/blank: procollagen 1 relative to blank, DMEM 10% FCS
Procedure: The efficacy of a combination in accordance with the invention is tested by assaying the procollagen 1. To do this, a composition in accordance with the invention is placed in contact with normal human dermal fibroblasts and the whole is left to incubate for 72 hours before assaying.
The C-glycoside derivative used is C-β-D-xylopyranoside-2-hydroxypropane sold under the name Mexoryl® from Chimex. It is in the form of a solution containing 30% by weight of active material in a 60/40 water/1,2-propanediol mixture.
• Normal human dermal fibroblasts (NHDF) (R8PF2), obtained from a mammary plasty • Type: pool PF2, used at the 8th passage • Culture: 37° C., 5% CO2 • Test culture medium: DMEM (Invitrogen 21969035) • L-glutamine 2 mM (Invitrogen 25030024) • Penicillin 50 IU/ml streptomycin 50 μg/ml (Invitrogen 15070063) • 10% Foetal calf serum (v/v, Invitrogen 10270098).
The normal human dermal fibroblasts (R8PF2) are inoculated in whole DMEM medium and preincubated for 24 hours at 37° C. and 5% CO2. At 80% confluence, the culture medium is replaced with DMEM test medium containing 10% FCS with or without (blank) the products or mixtures to be tested or the reference (TGF-β). The cells are then incubated at 37° C. for 72 hours. Each experimental condition was performed in triplicate.
After incubation, the culture media are harvested and the type I procollagen assay is performed on a sample of medium using a specific ELISA assay kit and according to the supplier's instructions (Procollagen Type I C-Peptide EIA Kit, Bio-Whittaker MK101). An MTT viability test is performed on the cell lawns.

O=C1O[C@H]([C@@H](O)CO)C(O)=C1O [Ascorbic acid, ascorbic acid]
Procollagen 1 (0.01 mg/ml): 17052 ng/mL
%/blank (0.01 mg/ml): 887%
synthesis of procollagen 1 by the fibroblasts (in words) (tested at 0.01 mg/ml, culturing for 72 hours in DMEM medium containing 10% FCS): significantly increases

CC(O)C[C@@H]1OC[C@@H](O)[C@H](O)[C@H]1O (stereo partly drawn) [C-Glycoside derivative, C-β-D-xylopyranoside-2-hydroxypropane]
Procollagen 1 (1 mM): 1838 ng/mL
%/blank (1 mM): 96%
amount of procollagen 1 synthesized by the fibroblasts (in words) (tested at 1 mm, culturing for 72 hours in DMEM medium containing 10% FCS): does not significantly modify
